Measured values as given in patent US8853258B2, “C-linked hydroxamic acid derivatives useful as antibacterial agents” (Pfizer Inc., priority 2009, dated 2014).
≈ marks a conversion by molar mass, not a printed value. Like-named read-outs stand apart in the source and are kept apart here.

Tests used:
Format in all cases: cell-based
[1] = system: Acinetobacter baumanii/haemolyticus: Multidrug-resistant clinical isolate (AB-3167); assay: MIC determination (CLSI), AB-3167; settings: for AB-3167 MIC: Acinetobacter baumanii/haemolyticus multidrug-resistant clinical isolate AB-3167; for MIC: Acinetobacter baumannii
Description: (§1) The in vitro antibacterial activity of compounds described in the Examples was evaluated by minimum inhibitory concentration (MIC) testing according to Clinical and Laboratory Standards Institute (CLSI, formerly NCCLS) guidelines. See: Clinical and Laboratory Standards Institute. Methods for Dilution Antimicrobial Susceptibility Tests for Bacteria that Grow Aerobically; Approved Standard-Seventh Edition. CLSI document M7-A7 [ISBN 1-56238-587-9]. Clinical and Laboratory Standards Institute, 940 West Valley Road, Suite 1400, Wayne, Pa. 19087-1898 USA, 2006; also Clinical and Laboratory Standards Institute. Performance Standards for Antimicrobial Susceptibility Testing; Eighteenth Informational Supplement. CLSI document M100-S18 [ISBN1-56238-653-0]. Clinical and Laboratory Standards Institute.
(§2) The following bacterial strains were used in these MIC determinations:
2) Acinetobacter baumanii/haemolyticus: Multidrug-resistant clinical isolate labeled as AB-3167 in Tables 1, 2 and 3;

[2] = system: Escherichia coli EC-1: VOGEL, mouse virulent; assay: MIC determination (CLSI), EC-1; settings: for EC-1 MIC: Escherichia coli EC-1 VOGEL, mouse virulent; for MIC: Escherichia coli
Description: as §1, §2
3) Escherichia coli EC-1: VOGEL, mouse virulent labeled as EC-1 in Tables 1, 2 and 3;

[3] = system: Klebsiella pneumoniae: Ciprofloxacin-resistant isolate, ESBL, clinical isolate (KP-3700); assay: MIC determination (CLSI), KP-3700
Description: as §1, §2
4) Klebsiella pneumoniae: Ciprofloxacin-resistant isolate, expresses extended-spectrum beta-lactamases (ESBL), clinical isolate, labeled as KP-3700 in Tables 1, 2, and 3.

[4] = system: Pseudomonas aeruginosa UI-18: Wild-type (PA-7); assay: MIC determination (CLSI), PA-7; settings: for PA-7 MIC: Pseudomonas aeruginosa UI-18 wild-type PA-7; for MIC: Pseudomonas aeruginosa
Description: as §1, §2
1) Pseudomonas aeruginosa UI-18: Wild-type, labeled as PA-7 in Tables 1, 2 and 3;

Structure (SMILES) | AB-3167 MIC [1] | EC-1 MIC [2] | KP-3700 MIC [3] | PA-7 MIC [4] | MIC ([1]; Table 3, read-out: AB-3167 MIC) [µg/mL] | MIC ([2]; read-out: EC-1 MIC) [µg/mL] | MIC ([4]; Table 3, read-out: PA-7 MIC) [µg/mL] | MIC ([1]; Table 1, MIC, read-out: AB-3167 (MIC)) [µg/mL] | MIC ([2]; read-out: EC-1: (MIC)) [µg/mL] | MIC ([4]; Table 1, MIC, read-out: PA-7 (MIC)) [µg/mL]
CC(CCc1ccc(-c2ccc(C(N)=O)cc2)cc1)(C(=O)NO)S(C)(=O)=O (stereo not drawn) [Example 96] | ≧64 mg/L | ≧64 mg/L | ≧64 mg/L | 8 µg/mL |  |  |  |  |  | 
Cc1ccc(C)c(COc2ccc(CCC(C)(C(=O)NO)S(C)(=O)=O)cc2)c1 (stereo not drawn) [Example 254, 4-{4-[(2,5-dimethylbenzyl)oxy]phenyl}-N-hydroxy-2-methyl-2-(methylsulfonyl)butanamide] |  |  | ≧64 mg/L |  | 16 (≈ 39.5 µM) | 8 (≈ 19.7 µM) | 16 (≈ 39.5 µM) |  |  | 
Cc1cc(-c2ccc(CCC(C)(C(=O)NO)S(C)(=O)=O)cc2)cnc1N(C)C (stereo not drawn) [Example 37] | ≧64 mg/L | 16 µg/mL | ≧64 mg/L | 16 µg/mL |  |  |  |  |  | 
CC(CCc1ccc(-c2ccc(F)cc2)cc1)(C(=O)NO)S(C)(=O)=O (stereo not drawn) [Example 27] | 8 µg/mL | 2 µg/mL | 4 µg/mL | 1 µg/mL |  |  |  |  |  | 
Cn1ccnc1-c1ccc(-c2ccc(CCC(C)(C(=O)NO)S(C)(=O)=O)cc2)cc1 (stereo not drawn) [Example 92] | ≧64 mg/L | 16 µg/mL | 32 µg/mL | 32 µg/mL |  |  |  |  |  | 
Cc1cccc(COc2ccc(CCC(C)(C(=O)NO)S(C)(=O)=O)cc2)c1F (stereo not drawn) [Example 262, 4-{4-[(2-fluoro-3-methylbenzyl)oxy]phenyl}-N-hydroxy-2-methyl-2-(methylsulfonyl)butanamide] |  |  | 8 µg/mL |  | 16 (≈ 39.1 µM) | 1 (≈ 2.44 µM) | 2 (≈ 4.88 µM) |  |  | 
CC(CCc1ccc(OCc2ccncc2)cc1)(C(=O)NO)S(C)(=O)=O (stereo not drawn) [Example 316, N-hydroxy-2-methyl-2-(methylsulfonyl)-4-[4-(pyridin-4-ylmethoxy)phenyl]butanamide] |  |  | ≧64 mg/L |  | 16 (≈ 42.3 µM) | 32 (≈ 84.6 µM) | 8 (≈ 21.1 µM) |  |  | 
CC(CCc1ccc(-c2ccc(F)c(F)c2)cc1)(C(=O)NO)S(C)(=O)=O (racemic) [Example 75] | 8 µg/mL | 1 µg/mL | 4 µg/mL | 0.5 µg/mL |  |  |  |  |  | 
COc1cc(-c2ccc(CCC(C)(C(=O)NO)S(C)(=O)=O)cc2)ccc1O (stereo not drawn) [Example 139] | ≧64 mg/L | 16 µg/mL | ≧64 mg/L | 16 µg/mL |  |  |  |  |  | 
CC(CCc1ccc(OCCCC2CCCC2)cc1)(C(=O)NO)S(C)(=O)=O (stereo not drawn) [Example 313, 4-[4-(3-cyclopentylpropoxy)phenyl]-N-hydroxy-2-methyl-2-(methylsulfonyl)butanamide] |  |  | 16 µg/mL |  | 2 (≈ 5.03 µM) | 4 (≈ 10.1 µM) | 16 (≈ 40.2 µM) |  |  | 
COc1ccc(-c2ccc(CCC(C)(C(=O)NO)S(C)(=O)=O)cc2)cc1OC (stereo not drawn) [Example 33] | ≧64 mg/L | 16 µg/mL | 32 µg/mL | 16 µg/mL |  |  |  |  |  | 
CCc1ccccc1-c1ccc(CCC(C)(C(=O)NO)S(C)(=O)=O)cc1 (racemic) [Example 69] | ≧64 mg/L | 16 µg/mL | ≧64 mg/L | 16 µg/mL |  |  |  |  |  | 
CC(CCc1ccc(-c2ccc(C#N)cc2)nc1)(C(=O)NO)S(C)(=O)=O (stereo not drawn) [Example 122] | ≧64 mg/L | 16 µg/mL | ≧64 mg/L | 8 µg/mL |  |  |  |  |  | 
CC(CCc1ccc(-c2ccc3c(c2)CCO3)cc1)(C(=O)NO)S(C)(=O)=O (racemic) [Example 74] | 16 µg/mL | 1 µg/mL | 4 µg/mL | 1 µg/mL |  |  |  |  |  | 
CCCOc1ccc(CCC(C)(C(=O)NO)S(C)(=O)=O)cc1 (stereo not drawn) [Example 237, N-hydroxy-2-methyl-2-(methylsulfonyl)-4-(4-propoxyphenyl)butanamide] |  |  | ≧64 mg/L |  | ≥ 64 | 32 (≈ 97.1 µM) | 8 (≈ 24.3 µM) |  |  | 
COc1ccc(-c2ccc(CCC(C)(C(=O)NO)S(C)(=O)=O)cc2)c(C)c1 (racemic) [Example 60] | ≧64 mg/L | 4 µg/mL | 16 µg/mL | 4 µg/mL |  |  |  |  |  | 
CC(CCc1ccc(-c2ccc(C#N)cc2)cn1)(C(=O)NO)S(C)(=O)=O (stereo not drawn) [Example 163] | ≧64 mg/L | 32 µg/mL | 32 µg/mL | 8 µg/mL |  |  |  |  |  | 

Structure (SMILES) | AB-3167 MIC [1] | EC-1 MIC [2] | KP-3700 MIC [3] | PA-7 MIC [4] | MIC ([1]; Table 3, read-out: AB-3167 MIC) [µg/mL] | MIC ([2]; read-out: EC-1 MIC) [µg/mL] | MIC ([4]; Table 3, read-out: PA-7 MIC) [µg/mL] | MIC ([1]; Table 1, MIC, read-out: AB-3167 (MIC)) [µg/mL] | MIC ([2]; read-out: EC-1: (MIC)) [µg/mL] | MIC ([4]; Table 1, MIC, read-out: PA-7 (MIC)) [µg/mL]
CC(C)Oc1ccc(-c2ccc(CCC(C)(C(=O)NO)S(C)(=O)=O)cc2)cc1 (racemic) [Example 49] | 8 µg/mL | 2 µg/mL | 4 µg/mL | 4 µg/mL |  |  |  |  |  | 
CC(CCc1ccc(-c2ccc(C#N)nc2)cc1)(C(=O)NO)S(C)(=O)=O (stereo not drawn) [Example 93] | ≧64 mg/L | 16 µg/mL | 32 µg/mL | 4 µg/mL |  |  |  |  |  | 
CC(CCc1ccc(OCCc2ccncc2)cc1)(C(=O)NO)S(C)(=O)=O (stereo not drawn) [Example 311, N-hydroxy-2-methyl-2-(methylsulfonyl)-4-[4-(2-pyridin-4-ylethoxy)phenyl]butanamide] |  |  | ≧64 mg/L |  | ≥ 64 | ≥ 64 | 32 (≈ 81.5 µM) |  |  | 
CC(CCc1ccc(OCCOc2ccccc2)cc1)(C(=O)NO)S(C)(=O)=O (stereo not drawn) [Example 248, N-hydroxy-2-methyl-2-(methylsulfonyl)-4-[4-(2-phenoxyethoxy)phenyl]butanamide] |  |  | 8 µg/mL |  | 32 (≈ 78.5 µM) | 2 (≈ 4.91 µM) | 32 (≈ 78.5 µM) |  |  | 
CC(CCc1ccc(-c2cnc(N3CCOCC3)nc2)cc1)(C(=O)NO)S(C)(=O)=O (stereo not drawn) [Example 39] | ≧64 mg/L | 4 µg/mL | 32 µg/mL | ≧64 mg/L |  |  |  |  |  | 
Cc1ccc(COc2ccc(CCC(C)(C(=O)NO)S(C)(=O)=O)cc2)cn1 (stereo not drawn) [Example 270, N-hydroxy-2-methyl-4-{4-[(6-methylpyridin-3-yl)methoxy]phenyl}-2-(methylsulfonyl)butanamide] |  |  | ≧64 mg/L |  | ≥ 64 | ≥ 64 | 32 (≈ 81.5 µM) |  |  | 
CC(CCc1ccc(-n2cc3ccccc3n2)cc1)(C(=O)NO)S(C)(=O)=O (racemic) [Example 22, (+/−)-N-hydroxy-4-[4-(2H-indazol-2-yl)phenyl]-2-methyl-2-(methylsulfonyl)butanamide] |  |  | 8 µg/mL |  |  |  |  | ≥ 64 | 4 (≈ 10.3 µM) | 4 (≈ 10.3 µM)
CC(CCc1ccc(OCCCc2ccccc2)cc1)(C(=O)NO)S(C)(=O)=O (stereo not drawn) [Example 264, N-hydroxy-2-methyl-2-(methylsulfonyl)-4-[4-(3-phenylpropoxy)phenyl]butanamide] |  |  | 16 µg/mL |  | 8 (≈ 19.7 µM) | 4 (≈ 9.86 µM) | 32 (≈ 78.9 µM) |  |  | 
CC(CCc1ccc(-c2ccc(F)cc2F)cc1)(C(=O)NO)S(C)(=O)=O (racemic) [Example 53] | 8 µg/mL | 1 µg/mL | 4 µg/mL | 0.5 µg/mL |  |  |  |  |  | 
CC(CCc1ccc(-c2cc(Cl)ccc2F)cc1)(C(=O)NO)S(C)(=O)=O (racemic) [Example 90] | 8 µg/mL | 8 µg/mL | 8 µg/mL | 8 µg/mL |  |  |  |  |  | 
COc1cccc(-c2ccc(CCC(C)(C(=O)NO)S(C)(=O)=O)cn2)c1F (stereo not drawn) [Example 134] | ≧64 mg/L | 4 µg/mL | 16 µg/mL | 4 µg/mL |  |  |  |  |  | 
CC(CCc1ccc(OC2CCCCC2)cc1)(C(=O)NO)S(C)(=O)=O (stereo not drawn) [Example 238, 4-[4-(cyclohexyloxy)phenyl]-N-hydroxy-2-methyl-2-(methylsulfonyl)butanamide] |  |  | ≧64 mg/L |  | 32 (≈ 86.6 µM) | 32 (≈ 86.6 µM) | 8 (≈ 21.7 µM) |  |  | 
Cc1ccccc1-c1ccc(CCC(C)(C(=O)NO)S(C)(=O)=O)cc1 (racemic) [Example 58] | 32 µg/mL | 8 µg/mL | 32 µg/mL | 4 µg/mL |  |  |  |  |  | 
CC(CCc1ccc(-c2ccc(F)cc2)cn1)(C(=O)NO)S(C)(=O)=O (stereo not drawn) [Example 164] | ≧64 mg/L | 32 µg/mL | 32 µg/mL | 4 µg/mL |  |  |  |  |  | 
CC(CCc1ccc(OCc2cccc(OC(F)(F)F)c2)cc1)(C(=O)NO)S(C)(=O)=O (stereo not drawn) [Example 274, N-hydroxy-2-methyl-2-(methylsulfonyl)-4-(4-{[3-(trifluoromethoxy)benzyl]oxy}phenyl)butanamide] |  |  | 16 µg/mL |  | 16 (≈ 34.7 µM) | 4 (≈ 8.67 µM) | 16 (≈ 34.7 µM) |  |  | 
CC(CCc1ccc(-c2ccc(CN)cc2)cc1)(C(=O)NO)S(C)(=O)=O (stereo not drawn) [Example 111] | ≧64 mg/L | ≧64 mg/L | ≧64 mg/L | 32 µg/mL |  |  |  |  |  | 
